The values that follow come from patent publication US12667559B2, “Dihydronaphthyridinone compound, and preparation method therefor and medical use thereof” (GENFLEET THERAPEUTICS (SHANGHAI) INC., priority 2020, dated 2026).

The subject of one assay is U937 cells. In words: Inhibitory activity against TNF-α induced programmed cell necrosis (U937 cells, CellTiter-Glo). The format is cell-based, human. The following applies: Homo sapiens, U-937, 48 h, U937 cells, human TNF-α and Q-VD-Oph induced necrosis, 48 hours, survival rate; read-out: U937 IC50. In general terms: ATP-based viability assays read luminescence as a measure of living cells.
By IC50 is commonly meant the concentration at which inhibition is half-maximal. Turning to `O=C(CO)Nc1cn2nc(-c3cnc4c(c3)C(=O)N(Cc3cc(F)cc(F)c3OC3CCOCC3)CC4)ccc2n1` [Z39, N-(6-(6-(3,5-difluoro-2-((tetrahydro-2H-pyran-4-yl)oxy)benzyl)-5-oxo-5,6,7,8-tetrahydro-1,6-naphthyridin-3-yl)imidazo[1,2-b]pyridazin-2-yl)-2-hydroxyacetamide], the IC50 is 0.9 nM.
On the same count and under the same terms, then `C[C@@H](c1ccccc1OC(F)(F)F)N1CCc2ncc(-c3ccn4nc(N)nc4c3)cc2C1=O` [Z46-1, (S)-3-(2-amino-[1,2,4]triazolo[1,5-a]pyridyl-7-yl)-6-(1-(2-(trifluoromethoxy)phenyl)ethyl)-7,8-dihydro-1,6-naphthyridin-5(6H)-one], with 7.4 nM.
For the compound `C[C@H](c1ccccc1OC(F)(F)F)N1CCc2ncc(-c3ccn4nc(N)nc4c3)cc2C1=O` [Z46-2, (R)-3-(2-amino-[1,2,4]triazolo[1,5-a]pyridyl-7-yl)-6-(1-(2-(trifluoromethoxy)phenyl)ethyl)-7,8-dihydro-1,6-naphthyridin-5(6H)-one], the IC50 turned out to be 986 nM.
As to `Nc1nc2cc(-c3cnc4c(c3)C(=O)N(c3cnn(Cc5ccc(F)cc5)c3)CC4)ccn2n1` [Z52, 3-(2-amino-[1,2,4]triazolo[1,5-a]pyridyl-7-yl)-6-(1-(4-fluorobenzyl)-1H-pyrazol-4-yl)-7,8-dihydro-1,6-naphthyridin-5(6H)-one], the IC50 was determined as 19 nM.
`Nc1nc2cc(-c3cnc4c(c3)C(=O)N(Cc3cc(F)ccc3CN3CCOCC3)CC4)ccn2n1` [Z54, 3-(2-amino-[1,2,4]triazolo[1,5-a]pyridyl-7-yl)-6-(5-fluoro-2-(morpholinomethyl)benzyl)-7,8-dihydro-1,6-naphthyridin-5(6H)-one]: the IC50 came to 12 nM.
`Cc1nc2c(cc1-c1ccn3nc(N)nc3c1)C(=O)N(Cc1cc(OC(F)(F)F)ccc1F)CC2` [Z57, 3-(2-amino-[1,2,4]triazolo[1,5-a]pyridyl-7-yl)-6-(2-fluoro-5-(trifluoromethoxy)benzyl)-2-methyl-7,8-dihydro-1,6-naphthyridin-5(6H)-one]: the IC50 was found to be 2 nM.
Still for that read-out and setting: then `Nc1nc2cc(-c3cnc4c(c3)C(=O)N(Cc3cc(F)ccc3OC3CCOCC3)CC4)ccn2n1` [Z65], with 0.5 nM.
Still for that read-out and setting: then `Nc1nc2cc(-c3cnc4c(c3)C(=O)N(Cc3cc(F)ccc3OC3CCOC3)CC4)ccn2n1` (stereo not shown) [Z66], with 2.3 nM; and `Nc1nc2cc(-c3cnc4c(c3)C(=O)N(Cc3cc(F)cc(F)c3OCC3CC3)CC4)ccn2n1` [Z67], with 0.5 nM; and `Nc1nc2cc(-c3cnc4c(c3)C(=O)N(Cc3ccccc3OC3CC3)CC4)ccn2n1` [Z68], with 4.3 nM.
Regarding `Nc1nc2cc(-c3cnc4c(c3)C(=O)N(Cc3cc(F)cc(F)c3OC3CCOCC3)CC4)ccn2n1` [Z70], the IC50 amounted to 0.4 nM.
For the compound `Nc1nc2cc(-c3cnc4c(c3)C(=O)N(Cc3cc(F)cc(F)c3OC3CCOC3)CC4)ccn2n1` (stereo not shown) [Z71], the IC50 is 1.1 nM.
For the compound `Nc1nc2cc(-c3cnc4c(c3)C(=O)N(Cc3cc(C(F)(F)F)ccc3F)CC4)ccn2n1` [Z72], the IC50 was 82 nM.
On the same count and under the same terms, the value for `Nc1nc2cc(-c3cnc4c(c3)C(=O)N(Cc3cc(F)ccc3OC3CC3)CC4)ccn2n1` [Z76] was 4.1 nM; that for `Nc1nc2cc(-c3cnc4c(c3)C(=O)N(Cc3cccnc3OC3CC3)CC4)ccn2n1` [Z77] was 143 nM; that for `Nc1nc2cc(-c3cnc4c(c3)C(=O)N(Cc3ncccc3OC3CC3)CC4)ccn2n1` [Z78] was 59.5 nM.
For `Nc1nc2cc(-c3cnc4c(c3)C(=O)N(Cc3cc(F)ccc3OC3COC3)CC4)ccn2n1` [Z79], the IC50 was 47.6 nM.
The same measure, in the same setting: then `Cc1nc2c(cc1-c1ccn3nc(N)nc3c1)C(=O)N(Cc1ncccc1OC1CC1)CC2` [Z93], with 13 nM.
Take `O=C(COCc1ccccc1)Nc1cn2nc(-c3cnc4c(c3)C(=O)N(Cc3cc(F)cc(F)c3OC3CCOCC3)CC4)ccc2n1` [Z94, 2-(Benzoxy)-N-(6-(6-(3,5-difluoro-2-((tetrahydro-2H-pyran-4-yl)oxy)benzyl)-5-oxo-5,6,7,8-tetrahydro-1,6-naphthyridin-3-yl)imidazo[1,2-b]pyridazin-2-yl)acetamide]: the half-inhibitory concentration (IC50) turned out to be 2.5 nM.
On to `CCOC(=O)C(=O)Nc1cn2nc(-c3cnc4c(c3)C(=O)N(Cc3cc(F)cc(F)c3OC3CCOCC3)CC4)ccc2n1` [Z96, ethyl 2-((6-(6-(3,5-difluoro-2-((tetrahydro-2H-pyran-4-yl)oxy)benzyl)-5-oxo-5,6,7,8-tetrahydro-1,6-naphthyridin-3-yl)imidazo[1,2-b]pyridazin-2-yl)amino)-2-oxoacetate], for which the IC50 was 1.7 nM.
On the same count and under the same terms, then `Cc1cc(-c2cnc3c(c2)C(=O)N(c2cnn(C(C)c4ccc(F)cc4)c2)CC3)n2ncnc(N)c12` (stereo not shown) [Z97], with 0.2 nM; and `Cc1c(-c2cnc3c(c2)C(=O)N(Cc2ncccc2OC2CC2)CC3)ccn2nc(N)nc12` [Z98, 3-(2-amino-8-methyl-[1,2,4]triazolo[1,5-a]pyridyl-7-yl)-6-((3-cyclopropoxypyridyl-2-yl)methyl)-7,8-dihydro-1,6-naphthyridin-5(6H)-one], with 417 nM; and `Nc1nc2cc(-c3cnc4c(c3)C(=O)N(Cc3cc(F)ccc3OC(F)(F)F)CC4)ccn2n1` [Z102, 3-(2-amino-[1,2,4]triazolo[1,5-a]pyridyl-7-yl)-6-(5-fluoro-2-(trifluoromethoxy)benzyl)-7,8-dihydro-1,6-naphthyridin-5(6H)-one], with 21.1 nM.

The assay is the same for the next values; noted with them: U937 cells, human TNF-α and Q-VD-Oph induced necrosis, 48 hours, survival rate; read-out: U937 IC50.
Consider `CC(=O)Nc1nc2cc(-c3cnc4c(c3)C(=O)N(C(C)c3ccccc3OC(F)(F)F)CC4)ccn2n1` (stereo not shown) [Z49, N-(7-(5-oxo-6-(1-(2-(trifluoromethoxy)phenyl)ethyl)-5,6,7,8-tetrahydro-1,6-naphthyridin-3-yl)-[1,2,4]triazolo[1,5-a]pyridyl-2-yl)acetamide], for which the IC50 was determined as 26 nM.
Take `Nc1nc2cc(-c3cc4c(nc3Cl)CCN(Cc3cc(OC(F)(F)F)ccc3F)C4=O)ccn2n1` [Z56, 3-(2-amino-[1,2,4]triazolo[1,5-a]pyridyl-7-yl)-2-chloro-6-(2-fluoro-5-(trifluoromethoxy)benzyl)-7,8-dihydro-1,6-naphthyridin-5(6H)-one]: the IC50 stood at 4 nM.
On the same count and under the same terms, then `CC(c1ccc(F)cc1)n1cc(N2CCc3ncc(-c4ccn5nc(N)nc5c4)cc3C2=O)cn1` (stereo not shown) [Z64], with 2 nM; and `CC(c1cc(F)ccc1-c1cnn(C)c1)N1CCc2ncc(-c3ccn4nc(N)nc4c3)cc2C1=O` (stereo not shown) [Z80, 3-(2-amino-[1,2,4]triazolo[1,5-a]pyridyl-7-yl)-6-(1-(5-fluoro-2-(1-methyl-1H-pyrazol-4-yl)phenyl)ethyl)-7,8-dihydro-1,6-naphthyridin-5(6H)-one], with 19.8 nM.

Still in this assay, the particulars now being: U-937; U937 cells, human TNF-α and Q-VD-Oph induced necrosis, 48 hours, survival rate; read-out: U937 IC50.
On to `[2H]C([2H])([2H])C(=O)Nc1cn2nc(-c3cnc4c(c3)C(=O)N(Cc3cc(F)cc(F)c3OC3CCOCC3)CC4)ccc2n1` [Z38, N-(6-(6-(3,5-difluoro-2-((tetrahydro-2H-pyran-4-yl)oxy)benzyl)-5-oxo-5,6,7,8-tetrahydro-1,6-naphthyridin-3-yl)imidazo[1,2-b]pyridazin-2-yl)acetamide-2,2,2-d3], for which the IC50 came out at 1.3 nM.
On to `Nc1nc2cc(-c3cnc4c(c3)C(=O)N(Cc3ccccc3OC(F)(F)F)CC4)ccn2n1` [Z44, 3-(2-amino-[1,2,4]triazolo[1,5-a]pyridyl-7-yl)-6-(2-(trifluoromethoxy)benzyl)-7,8-dihydro-1,6-naphthyridin-5(6H)-one], for which the IC50 is 42 nM.
On the same count and under the same terms, the value for `CC(c1ccccc1OC(F)(F)F)N1CCc2ncc(-c3ccn4nc(N)nc4c3)cc2C1=O` (stereo not shown) [Z46, 3-(2-amino-[1,2,4]triazolo[1,5-a]pyridyl-7-yl)-6-(1-(2-(trifluoromethoxy)phenyl)ethyl)-7,8-dihydro-1,6-naphthyridin-5(6H)-one] was 7 nM; that for `Nc1nc2cc(-c3cnc4c(c3)C(=O)N(Cc3cc(OC(F)(F)F)ccc3F)CC4)ccn2n1` [Z48, 3-(2-amino-[1,2,4]triazolo[1,5-a]pyridyl-7-yl)-6-(2-fluoro-5-(trifluoromethoxy)benzyl)-7,8-dihydro-1,6-naphthyridin-5(6H)-one] was 6 nM.
As to `Nc1nc2cc(-c3cnc4c(c3)C(=O)N(Cc3cccc(OC(F)(F)F)c3)CC4)ccn2n1` [Z50, 3-(2-amino-[1,2,4]triazolo[1,5-a]pyridyl-7-yl)-6-(3-(trifluoromethoxy)benzyl)-7,8-dihydro-1,6-naphthyridin-5(6H)-one], the IC50 is 40 nM.
Same read-out and setting: then `CC(c1cc(F)ccc1OC(F)(F)F)N1CCc2ncc(-c3ccn4nc(N)nc4c3)cc2C1=O` (stereo not shown) [Z55, 3-(2-amino-[1,2,4]triazolo[1,5-a]pyridyl-7-yl)-6-(1-(5-fluoro-2-(trifluoromethoxy)phenyl)ethyl)-7,8-dihydro-1,6-naphthyridin-5(6H)-one], with 8 nM.
Regarding `CNc1nc2cc(-c3cnc4c(c3)C(=O)N(Cc3cc(OC(F)(F)F)ccc3F)CC4)ccn2n1` [Z59, 6-(2-fluoro-5-(trifluoromethoxy)benzyl)-3-(2-(methylamino)-[1,2,4]triazolo[1,5-a]pyridyl-7-yl)-7,8-dihydro-1,6-naphthyridin-5(6H)-one], the IC50 was 12 nM.
Same read-out and setting: the value for `CC(c1cc(OC(F)(F)F)ccc1F)N1CCc2ncc(-c3ccn4nc(N)nc4c3)cc2C1=O` (stereo not shown) [Z60, 3-(2-amino-[1,2,4]triazolo[1,5-a]pyridyl-7-yl)-6-(1-(2-fluoro-5-(trifluoromethoxy)phenyl)ethyl)-7,8-dihydro-1,6-naphthyridin-5(6H)-one] was 162 nM; that for `Nc1nc2cc(-c3cnc4c(c3)C(=O)N(Cc3ncccc3OCC3CC3)CC4)ccn2n1` [Z61, 3-(2-amino-[1,2,4]triazolo[1,5-a]pyridyl-7-yl)-6-((3-(cyclopropylmethoxy)pyridyl-2-yl)methyl)-7,8-dihydro-1,6-naphthyridin-5(6H)-one] was 14 nM.
In the case of `Nc1nc2cc(-c3cnc4c(c3)C(=O)N(Cc3ncccc3OC3CCOCC3)CC4)ccn2n1` [Z62, 3-(2-amino-[1,2,4]triazolo[1,5-a]pyridin-7-yl)-6-((3-((tetrahydro-2H-pyran-4-yl)oxy)pyridin-2-yl)methyl)-7,8-dihydro-1,6-naphthyridin-5(6H)-one], the IC50 was determined as 13 nM.
